Experimental data: US12286428B2 (BRISTOL-MYERS SQUIBB COMPANY, priority 2019, dated 2025)
pIC50: −log10 of the molar value.

Assays:
IRAK4 = molecular target: T1, IRAK4 (Homo sapiens, UniProt Q9NWZ3); assay: IRAK4 Inhibition Assay; assay type: biochemical; settings: ATP 500 μM; FL-IPTSPITTTYFFFKKK peptide […]; IRAK4 0.6 nM; 60 min room temperature; Caliper LABCHIP 3000
T1 sequence (Q9NWZ3 1-460): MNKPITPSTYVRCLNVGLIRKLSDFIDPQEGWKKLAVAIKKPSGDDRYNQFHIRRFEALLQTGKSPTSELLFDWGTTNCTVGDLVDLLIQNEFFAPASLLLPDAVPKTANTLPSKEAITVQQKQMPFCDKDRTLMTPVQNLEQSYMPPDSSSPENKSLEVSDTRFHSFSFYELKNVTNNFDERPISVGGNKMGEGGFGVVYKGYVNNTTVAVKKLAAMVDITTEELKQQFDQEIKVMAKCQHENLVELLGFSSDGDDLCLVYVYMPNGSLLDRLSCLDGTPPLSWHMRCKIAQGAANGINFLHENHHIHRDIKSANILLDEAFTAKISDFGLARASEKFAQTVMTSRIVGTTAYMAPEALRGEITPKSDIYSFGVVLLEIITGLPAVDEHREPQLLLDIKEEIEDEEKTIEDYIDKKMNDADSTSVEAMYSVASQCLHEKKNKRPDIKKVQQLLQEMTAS
Experimental: The assays were performed in U-bottom 384-well plates. […] The reaction was initiated by the combination of IRAK4 with substrates and test compounds. The reaction mixture was incubated at room temperature for 60 min. and terminated by adding 45 μL of 35 mM EDTA to each sample. The reaction mixture was analyzed on the Caliper LABCHIP® 3000 (Caliper, Hopkinton, MA) by electrophoretic separation of the fluorescent substrate and phosphorylated product. […] The final concentrations of reagents in the assays are ATP, 500 μM; FL-[…] peptide 1.5 μM; IRAK4, 0.6 nM; and DMSO, 1.6%.

[1] = tested on: Human whole blood, IL-6 levels after TLR2 agonist lipoteichoic acid; assay: IRAK4 Whole Blood Assay; assay type: cell-based; settings: compounds 60 minutes at 37° C., lipoteichoic acid 10 μg/mL for 5 hours
Experimental: IRAK4 Whole Blood Assay Human whole blood containing the anti-coagulant ACD-A was plated in 384-well plate (25 μL/well) and incubated with compounds for 60 minutes at 37° C. in a 5% CO2 incubator. The blood was stimulated with a TLR2 agonist, 10 μg/mL final concentration of lipoteichoic acid (Invivogen, San Diego, CA) in 25 μL RPMI (Gibco) for 5 hours in a 5% CO2 incubator. At the end of the incubation, plates were centrifuged at 2300 rpm for 5 minutes. Supernatants were harvested and analyzed for IL-6 levels by Flow Cytometry beads assay (BD Biosciences, San Jose, CA).

pIC50 (IRAK4): 8.64
pIC50 [1]: 5.60
SMILES: CC[C@@H]1[C@H](F)C(=O)N[C@@H]1COC1=CC=CC2C=C(C(N)=O)n3nc(C)cc3C12 (stereo partly drawn) [Example 62, 10-(((2S,3S,4S)-3-ethyl-4-fluoro-5-oxopyrrolidin-2-yl)methoxy)-2-methyl-6a,10a-dihydropyrazolo[5,1-a]isoquinoline-5-carboxamide]
